Assay results taken from patent US11691986B2, “PTEFB inhibiting macrocyclic compounds” (Bayer Aktiengesellschaft, priority 2017, dated 2023).
“And” between values parts separate entries of the source, which are not always exact repeats. Equal entries are not always repeated.

Columns and labels:
[1] = molecular target: T1, CDK2/CycE (Homo sapiens, UniProt P24941); experiment: CDK2/CycE high ATP kinase assay (TR-FRET); type: biochemical; details: 2 mM ATP, Method 2b
T1 construct: GST; purchased ProQinase GmbH (Freiburg, Germany); host or cells: insect cells (Sf9)
Method: 2b. CDK2/CycE High ATP Kinase Assay
CDK2/CycE-inhibitory activity of compounds of the present invention at 2 mM adenosine-tri-phosphate (ATP) was quantified employing the CDK2/CycE TR-FRET (TR-FRET=Time Resolved Fluorescence Energy Transfer) assay as described in the following paragraphs.
Recombinant fusion proteins of GST and human CDK2 and of GST and human CycE, expressed in insect cells (Sf9) and purified by Glutathion-Sepharose affinity chromatography, were purchase from ProQinase GmbH (Freiburg, Germany). As substrate for the kinase reaction biotinylated peptide biotin-Ttds-YISPLKSPYKISEG (C-terminus in amid form) was used which can be purchased e.g. form the company JERINI peptide technologies (Berlin, Germany).
(§1) For the assay 50 nl of a 100 fold concentrated solution of the test compound in DMSO was pipetted into either a black low volume 384 well microtiter plate or a black 1536 well microtiter plate (both Greiner Bio-One, Frickenhausen, Germany), 2 μl of a solution of CDK2/CycE in aqueous assay buffer [50 mM Tris/HCl pH 8.0, 10 mM MgCl2, 1.0 mM dithiothreitol, 0.1 mM sodium ortho-vanadate, 0.01% (v/v) Nonidet-P40 (Sigma)] were added and the mixture was incubated for 15 min at 22° C. to allow pre-binding of the test compounds to the enzyme before the start of the kinase reaction. […] The concentration of CDK2/CycE was adjusted depending of the activity of the enzyme lot and was chosen appropriate to have the assay in the linear range, typical concentrations were about 10 ng/ml. The reaction was stopped by the addition of 3 μl of a solution of TR-FRET detection reagents (0.333 μM streptavidine-XL665 [Cisbio Bioassays, Codolet, France] and 1.67 nM anti-RB(pSer807/pSer811)-antibody from BD Pharmingen [#558389] and 2 nM LANCE EU-W1024 labeled anti-mouse IgG antibody [Perkin-Elmer, product no. AD0077, as an alternative a Terbium-cryptate-labeled anti-mouse IgG antibody from Cisbio Bioassays can be used]) in an aqueous EDTA-solution (167 mM EDTA, 0.2% (w/v) bovine serum albumin in 100 mM HEPES pH 7.5).
(§2) The resulting mixture was incubated 1 h at 22° C. to allow the formation of complex between the phosphorylated biotinylated peptide and the detection reagents. Subsequently the amount of phosphorylated substrate was evaluated by measurement of the resonance energy transfer from the Eu-chelate to the streptavidine-XL. Therefore, the fluorescence emissions at 620 nm and 665 nm after excitation at 350 nm was measured in a TR-FRET reader, e.g. a Pherastar (BMG Labtechnologies, Offenburg, Germany) or a Viewlux (Perkin-Elmer). The ratio of the emissions at 665 nm and at […] was taken as the measure for the amount of phosphorylated substrate. The data were normalised (enzyme reaction without inhibitor=0% inhibition, all other assay components but no enzyme=100% inhibition).

[2] = molecular target: T2, human PTEFb (CDK9/Cyclin T1) (Homo sapiens, UniProt P50750); experiment: Surface Plasmon Resonance PTEFb; type: binding; details: SPR, 37° C.; for Target residence time: 1/koff; for Kd: * = arithmetic mean of more than one value, read-out: Equilibrium dissociation constant KD
T2 construct: purchased ProQinase, Freiburg, Germany
T2 sequence (P50750 whole entry): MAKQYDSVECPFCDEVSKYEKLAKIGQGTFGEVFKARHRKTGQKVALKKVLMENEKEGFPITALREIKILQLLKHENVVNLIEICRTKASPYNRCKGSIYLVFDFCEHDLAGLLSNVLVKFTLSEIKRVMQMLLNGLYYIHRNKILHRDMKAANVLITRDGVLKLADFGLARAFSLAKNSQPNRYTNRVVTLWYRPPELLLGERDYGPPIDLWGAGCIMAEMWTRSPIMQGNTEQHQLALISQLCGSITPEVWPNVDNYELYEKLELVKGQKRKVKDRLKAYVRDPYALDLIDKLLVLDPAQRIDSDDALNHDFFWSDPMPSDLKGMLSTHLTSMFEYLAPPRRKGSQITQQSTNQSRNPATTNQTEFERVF
T2 sequence (O60563 whole entry partner): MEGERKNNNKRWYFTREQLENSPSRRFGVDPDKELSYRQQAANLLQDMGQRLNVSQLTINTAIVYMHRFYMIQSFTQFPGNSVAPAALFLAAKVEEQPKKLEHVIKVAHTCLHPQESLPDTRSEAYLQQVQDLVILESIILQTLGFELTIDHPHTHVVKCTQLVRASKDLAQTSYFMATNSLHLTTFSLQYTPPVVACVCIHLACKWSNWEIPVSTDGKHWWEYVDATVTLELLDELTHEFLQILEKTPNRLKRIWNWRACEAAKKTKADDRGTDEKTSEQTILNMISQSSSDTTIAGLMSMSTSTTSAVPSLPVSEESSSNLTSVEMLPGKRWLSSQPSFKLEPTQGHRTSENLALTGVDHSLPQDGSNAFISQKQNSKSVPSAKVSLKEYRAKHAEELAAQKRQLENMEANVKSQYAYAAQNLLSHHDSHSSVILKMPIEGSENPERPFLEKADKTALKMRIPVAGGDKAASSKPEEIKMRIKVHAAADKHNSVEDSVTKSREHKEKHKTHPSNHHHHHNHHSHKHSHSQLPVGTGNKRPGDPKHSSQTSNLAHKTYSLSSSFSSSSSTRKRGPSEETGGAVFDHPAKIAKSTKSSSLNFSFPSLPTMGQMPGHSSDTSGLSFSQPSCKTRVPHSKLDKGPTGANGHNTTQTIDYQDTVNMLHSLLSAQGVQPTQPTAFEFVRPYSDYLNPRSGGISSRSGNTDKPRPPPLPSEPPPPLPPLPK
From the text: 8. Surface Plasmon Resonance PTEFb
The ability of the compounds according to the invention to bind human PTEFb may be determined using surface plasmon resonance (SPR). KD values and koff values may be measured using a Biacore® T200 instrument (GE Healthcare, Uppsala, Sweden).
For SPR measurements, recombinant human PTEFb (CDK9/Cyclin T1 recombinant human active protein kinase purchased from ProQinase, Freiburg, Germany) is immobilized using standard amine coupling (Johnsson B et al, Anal Biochem. 1991 Nov. 1; 198(2):268-77). Briefly, carboxymethylated dextran biosensor chips (CM7, GE Healthcare) are activated with N-ethyl-N′-(3-dimethylaminopropyl)-carbodiimide hydrochloride (EDC) and N-hydroxysuccinimide (NHS) according to the supplier's instructions. Human PTEFb is diluted in 1×HBS-EP+(GE Healthcare) and injected on the activated chip surface. Subsequently, a 1:1 solution of 1 M ethanolamine-HCl (GE Healthcare) and 1×HBS-EP is injected to block unreacted groups, resulting in approximately 4000 response units (RU) of immobilized protein. A reference surface is generated by treatment with NHS-EDC and ethanolamine-HCl. Compounds are dissolved in 100% dimethylsulfoxide (DMSO, Sigma-Aldrich, Germany) to a concentration of 10 mM and subsequently diluted in running buffer (1×HBS-EP+pH 7.4 [generated from HBS-EP+Buffer 10×(GE Healthcare): 0.1 M HEPES, 1.5 M NaCl, 30 mM EDTA and 0.5% v/v Surfactant P20], 1% v/v DMSO). For kinetic measurements, serial dilutions of compound (0.078 nM up to 25 nM) are injected over immobilized protein. Binding kinetics is measured at 37° C. with a flow rate of 100 μl/min in running buffer. Compound concentrations are injected for 70 s followed by a dissociation time of 1100 s. The resulting sensorgrams are double-referenced against the reference surface as well as against blank injections.
The double-referenced sensorgrams are fit to a simple reversible Langmuir 1:1 reaction mechanism as implemented in the Biacore® T200 evaluation software 2.0 (GE Healthcare). In cases were full compound dissociation has not occurred at the end of the dissociation phase, the Rmax parameter (response at saturation) is fit as local variable. In all other cases, Rmax is fit as global variable.

[3] = molecular target: T3, CDK9/CycT1 (Homo sapiens, UniProt P50750); experiment: CDK9/CycT1 high ATP kinase assay (TR-FRET); type: biochemical; details: 2 mM ATP; for IC50: Method 1b; for Selectivity high ATP CDK9 over high ATP CDK2: IC50 (high ATP CDK2)/IC50 (high ATP CDK9): minimal values where CDK9 IC50 is at the assay limit of about 1-2 nM
T3 construct: Recombinant full-length His-tagged human CDK9 and CycT1; His; purchased Life Technologies PV4131; host or cells: insect cells
T3 sequence (P50750 whole entry): as the sequence (P50750 whole entry) above
T3 sequence (O60563 whole entry partner): as the sequence (O60563 whole entry partner) above
Method: 1b. CDK9/CycT1 High ATP Kinase Assay
CDK9/CycT1-inhibitory activity of compounds of the present invention at a high ATP concentration after preincubation of enzyme and test compounds was quantified employing the CDK9/CycT1 TR-FRET assay as described in the following paragraphs.
Recombinant full-length His-tagged human CDK9 and CycT1, expressed in insect cells and purified by Ni-NTA affinity chromatography, were purchased from Life Technologies (Cat. No PV4131). As substrate for the kinase reaction biotinylated peptide biotin-Ttds-YISPLKSPYKISEG (C-terminus in amide form) was used which can be purchased e.g. form the company JERINI peptide technologies (Berlin, Germany).
as §1, with “CDK9/CycT1” for “CDK2/CycE”, “in the range of 0.5 μg/ml.” for “about 10 ng/ml.”, “(0.33” for “(0.333”, “AD0077])” for “AD0077, as an alternative a Terbium-cryptate-labeled anti-mouse IgG antibody from Cisbio Bioassays can be used])”
as §2

[4] = system: A2780 cells; experiment: Proliferation assay, A2780 (Cell Titre-Glo); type: cell-based; details: Homo sapiens; A2780, 72-hour exposure; read-out: Inhibition of A2780 cell proliferation IC50
Method: A2780 human ovarian carcinoma cells (ECACC #93112519) and non-adherent MOLM-13 human acute myeloid leukemia cells (DSMZ ACC 554) were seeded at a density of 3,000 cell/well (A2780) or 5,000 cells/well (MOLM-13) in a 96-well multititer plate in 150 μL of growth medium supplemented 10% fetal calf serum. After 24 hours, cell viability of one plate (zero-point plate) was determined with the Cell Titre-Glo Luminescent Cell Viability Assay (Promega), while the medium of the other plates was supplemented with the test substances in various concentrations (0 μM, as well as in the range of 0.0001-10 μM; the final concentration of the solvent dimethyl sulfoxide was adjusted to 0.1%) using a Hewlett-Packard HP D300 Digital Dispenser. Cell viability was assessed after 72-hour exposure with the Cell Titre-Glo Luminescent Cell Viability Assay (Promega). IC50 values (inhibitory concentration at 50% of maximal effect) were determined by means of a 4 parameter fit on measurement data which were normalized to vehicle (DMSO) treated cells (=100%) and measurement readings taken immediately before compound exposure (=0%).

[5] = system: bronchospasms; details: in vivo; cited from earlier work

Structure (SMILES)	IC50 [1] [nM]	Target residence time ([2]; * = arithmetic mean)	Kd [2]	IC50 [3] [nM]	Selectivity high ATP CDK9 over high ATP CDK2: IC50 (high ATP CDK2)/IC50 (high ATP CDK9) [3]	IC50 [4] [nM]	Dissociation rate constant koff ([2]; * = arithmetic mean, < = below what is resolvable)	protection against bronchospasms (duration) [5]
CSCc1cc2cc(c1)OC(C)CCCNc1cc(ccc1F)-c1nc(ncc1F)N2 (racemic) [Example 7, (rac)-3,20-difluoro-14-methyl-10-[(methylsulfanyl)methyl]-13-oxa-5,7,18,25-tetraazatetracyclo[17.3.1.1^2,6.1^8,12]pentacosa-1(23),2(25),3,5,8(24),9,11,19,21-nonaene]	2980	–	–	3.9	762	71	–	–
CC(C)(C)OC(=O)N=S(C)(=O)Cc1cc2cc(c1)OCCCCCNc1cc(ccc1F)-c1nc(ncc1F)N2 (racemic) [Example 4, (rac)-tert-butyl [{[3,21-difluoro-13-oxa-5,7,19,26-tetraazatetracyclo[18.3.1.1^2,6.1^8,12]hexacosa-1(24),2(26),3,5,8(25),9,11,20,22-nonaen-10-yl]methyl}(methyl)oxido-λ^6-sulfanylidene]carbamate]	3670	–	–	1.4	2740	31	–	–
CS(=N)(=O)Cc1cc2cc(c1)OCCCCCNc1cc(ccc1F)-c1nc(ncc1F)N2 (racemic) [Example 5, (rac)-3,21-difluoro-10-[(S-methylsulfonimidoyl)methyl]-13-oxa-5,7,19,26-tetraazatetracyclo[18.3.1.1^2,6.1^8,12]hexacosa-1(24),2(26),3,5,8(25),9,11,20,22-nonaene]	357	–	–	1.6	216	3.4	–	–
C[N+]1(C)[C@@H]2C[C@@H](OC(=O)C(O)(c3cccs3)c3cccs3)C[C@H]1[C@@H]1O[C@@H]12 [tiotropium]	–	–	–	–	–	–	–	more than 6 hours
CS(=N)(=O)Cc1cc2cc(c1)OCCCCNc1cc(ccc1F)-c1nc(ncc1F)N2 (single isomer, unassigned) [Example 10, 3,20-difluoro-10-[(S-methylsulfonimidoyl)methyl]-13-oxa-5,7,18,25-tetraazatetracyclo[17.3.1.1^2,6.1^8,12]pentacosa-1(23),2(25),3,5,8(24),9,11,19,21-nonaene]	130	37* min	0.15 nM	1.6	79	–	4.5E−4* 1/s	–

More lines, in order of falling IC50 [1], values ahead:

IC50 [1] [nM]	Target residence time ([2]; * = arithmetic mean)	Kd [2]	IC50 [3] [nM]	Selectivity high ATP CDK9 over high ATP CDK2: IC50 (high ATP CDK2)/IC50 (high ATP CDK9) [3]	IC50 [4] [nM]	Dissociation rate constant koff ([2]; * = arithmetic mean, < = below what is resolvable)	Structure (SMILES)	protection against bronchospasms (duration) [5]
85	> 208 min	0.046 nM and 0.022 nM and 0.015 nM and 0.062 nM and 0.11 nM and 0.031 nM and 0.07 nM and 0.054 nM	2.3	37	–	–	CS(=N)(=O)Cc1cc2cc(c1)OCCCCNc1cc(ccc1F)-c1nc(ncc1F)N2 (single isomer, unassigned) [Example 9, 3,20-difluoro-10-[(S-methylsulfonimidoyl)methyl]-13-oxa-5,7,18,25-tetraazatetracyclo[17.3.1.1^2,6.1^8,12]pentacosa-1(23),2(25),3,5,8(24),9,11,19,21-nonaene]	–
25	–	–	4	6.3	6.7	–	CS(=N)(=O)Cc1cc2nc(c1)OCCCCNc1cc(ccc1F)-c1cc(ncc1F)N2 (racemic) [Example 6, (rac)-3,20-difluoro-10-[(S-methylsulfonimidoyl)methyl]-13-oxa-5,7,18,24-tetraazatetracyclo[17.3.1.1^2,6.1^8,12]pentacosa-1(23),2(25),3,5,8(24),9,11,19,21-nonaene]	–
